Tested on: SUM149PT spheroids with HUVEC/MSC, viability
Test: Anticancer human tumor SUM149PT cell line growth inhibition [GQUAD];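 also: spheroids exposed to drugs for seven days before readout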;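 as to viability, T/C: percent viability relative to DMSO vehicle control taken as 100%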
Details: for IC50: curve of first compound; for viability, T/C: stronger effect = lower value
Summary of the method: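 Tumor cells were grown as complex spheroids with HUVEC endothelial cells and mesenchymal stem cells as stroma. G-quadruplex stabilizers were combined with targeted agents over half-log dilutions from near the clinical Cmax, or from 10 microM.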

[1] = second compound 0.0316 µM, first compound 0.0316 µM
[2] = second compound 0.0316 µM, first compound 0.1 µM
[3] = second compound 0.0316 µM, first compound 0.316 µM
[4] = second compound 0.0316 µM, first compound 1 µM
[5] = second compound 0.0316 µM, first compound 3.16 µM
[6] = second compound 0.0316 µM, first compound 10 µM
[7] = second compound 0.1 µM, first compound 0.0316 µM
[8] = second compound 0.1 µM, first compound 0.1 µM
[9] = second compound 0.1 µM, first compound 0.316 µM
[10] = second compound 0.1 µM, first compound 1 µM
[11] = second compound 0.1 µM, first compound 3.16 µM
[12] = second compound 0.1 µM, first compound 10 µM
[13] = second compound 0.316 µM, first compound 0.0316 µM
[14] = second compound 0.316 µM, first compound 0.1 µM
[15] = second compound 0.316 µM, first compound 0.316 µM
[16] = second compound 0.316 µM, first compound 1 µM
[17] = second compound 0.316 µM, first compound 3.16 µM
[18] = second compound 0.316 µM, first compound 10 µM
[19] = second compound 1 µM, first compound 0.0316 µM
[20] = second compound 1 µM, first compound 0.1 µM
[21] = second compound 1 µM, first compound 0.316 µM
[22] = second compound 1 µM, first compound 1 µM
[23] = second compound 1 µM, first compound 3.16 µM
[24] = second compound 1 µM, first compound 10 µM
[25] = second compound 3.16 µM, first compound 0.0316 µM
[26] = second compound 3.16 µM, first compound 0.1 µM
[27] = second compound 3.16 µM, first compound 0.316 µM
[28] = second compound 3.16 µM, first compound 1 µM
[29] = second compound 3.16 µM, first compound 3.16 µM
[30] = second compound 3.16 µM, first compound 10 µM
[31] = second compound 10 µM, first compound 0.0316 µM
[32] = second compound 10 µM, first compound 0.1 µM
[33] = second compound 10 µM, first compound 0.316 µM
[34] = second compound 10 µM, first compound 1 µM
[35] = second compound 10 µM, first compound 3.16 µM
[36] = second compound 10 µM, first compound 10 µM

## Cc1cccc(N(C)C(=O)C2C(O)CCN2c2nc(C)cc(C(F)(F)F)c2C#N)c1 (stereo unspecified) + Cc1cnc(CNC(=O)c2c(=O)c3ccc(N4CCCN(C)CC4)nc3n3c2sc2ccccc23)cn1
Second compound 0.0316 µM
  IC50: > 10000 nM
Second compound 0.1 µM
  IC50: > 10000 nM
Second compound 0.316 µM
  IC50: > 10000 nM
Second compound 1 µM
  IC50: < 31.6 nM
Second compound 3.16 µM
  IC50: < 31.6 nM
Second compound 10 µM
  IC50: < 31.6 nM
[1]
  viability, T/C: 104%
[2]
  viability, T/C: 86.5%
[3]
  viability, T/C: 85%
[4]
  viability, T/C: 88.9%
[5]
  viability, T/C: 88%
[6]
  viability, T/C: 95.4%
[7]
  viability, T/C: 63.1%
[8]
  viability, T/C: 61.9%
[9]
  viability, T/C: 78.3%
[10]
  viability, T/C: 64.9%
[11]
  viability, T/C: 75.6%
[12]
  viability, T/C: 66.5%
[13]
  viability, T/C: 61%
[14]
  viability, T/C: 62.7%
[15]
  viability, T/C: 57.4%
[16]
  viability, T/C: 58.6%
[17]
  viability, T/C: 59.5%
[18]
  viability, T/C: 61.3%
[19]
  viability, T/C: 45.5%
[20]
  viability, T/C: 47.5%
[21]
  viability, T/C: 48.6%
[22]
  viability, T/C: 45.4%
[23]
  viability, T/C: 49.6%
[24]
  viability, T/C: 49.4%
[25]
  viability, T/C: 39.2%
[26]
  viability, T/C: 41.1%
[27]
  viability, T/C: 41.8%
[28]
  viability, T/C: 42.5%
[29]
  viability, T/C: 41.2%
[30]
  viability, T/C: 46.9%
[31]
  viability, T/C: 11%
[32]
  viability, T/C: 11.9%
[33]
  viability, T/C: 33.3%
[34]
  viability, T/C: 30.9%
[35]
  viability, T/C: 25%
[36]
  viability, T/C: 0.29%

## Cn1ncnc1[C@H]1c2n[nH]c(=O)c3cc(F)cc(c23)N[C@@H]1c1ccc(F)cc1 + Cc1cnc(CNC(=O)c2c(=O)c3ccc(N4CCCN(C)CC4)nc3n3c2sc2ccccc23)cn1
Second compound 0.0316 µM
  IC50: 145 nM
Second compound 0.1 µM
  IC50: 28.6 nM
Second compound 0.316 µM
  IC50: 5.8 nM
Second compound 1 µM
  IC50: < 0.999 nM
Second compound 3.16 µM
  IC50: < 0.999 nM
Second compound 10 µM
  IC50: < 0.999 nM
Second compound 0.0316 µM, first compound 0.000999 µM
  viability, T/C: 92.1%
Second compound 0.0316 µM, first compound 0.00316 µM
  viability, T/C: 68.9%
Second compound 0.0316 µM, first compound 0.00999 µM
  viability, T/C: 77.1%
[1]
  viability, T/C: 68.2%
Second compound 0.0316 µM, first compound 0.0999 µM
  viability, T/C: 50.4%
[3]
  viability, T/C: 42.5%
Second compound 0.1 µM, first compound 0.000999 µM
  viability, T/C: 71.2%
Second compound 0.1 µM, first compound 0.00316 µM
  viability, T/C: 63%
Second compound 0.1 µM, first compound 0.00999 µM
  viability, T/C: 53.7%
[7]
  viability, T/C: 52.2%
Second compound 0.1 µM, first compound 0.0999 µM
  viability, T/C: 43.2%
[9]
  viability, T/C: 40.8%
Second compound 0.316 µM, first compound 0.000999 µM
  viability, T/C: 53.9%
Second compound 0.316 µM, first compound 0.00316 µM
  viability, T/C: 53.4%
Second compound 0.316 µM, first compound 0.00999 µM
  viability, T/C: 48.7%
[13]
  viability, T/C: 45.4%
Second compound 0.316 µM, first compound 0.0999 µM
  viability, T/C: 41.1%
[15]
  viability, T/C: 41.6%
Second compound 1 µM, first compound 0.000999 µM
  viability, T/C: 47.8%
Second compound 1 µM, first compound 0.00316 µM
  viability, T/C: 48.8%
Second compound 1 µM, first compound 0.00999 µM
  viability, T/C: 38.5%
[19]
  viability, T/C: 41.1%
Second compound 1 µM, first compound 0.0999 µM
  viability, T/C: 38.5%
[21]
  viability, T/C: 34.2%
Second compound 3.16 µM, first compound 0.000999 µM
  viability, T/C: 38.5%
Second compound 3.16 µM, first compound 0.00316 µM
  viability, T/C: 39.5%
Second compound 3.16 µM, first compound 0.00999 µM
  viability, T/C: 34.4%
[25]
  viability, T/C: 34.6%
Second compound 3.16 µM, first compound 0.0999 µM
  viability, T/C: 35.3%
[27]
  viability, T/C: 33.4%
Second compound 10 µM, first compound 0.000999 µM
  viability, T/C: 10.1%
Second compound 10 µM, first compound 0.00316 µM
  viability, T/C: 9.37%
Second compound 10 µM, first compound 0.00999 µM
  viability, T/C: 33.9%
[31]
  viability, T/C: 28.9%
Second compound 10 µM, first compound 0.0999 µM
  viability, T/C: 9.31%
[33]
  viability, T/C: 0.26%

## O=C(c1cc(Cc2n[nH]c(=O)c3ccccc23)ccc1F)N1CCN(C(=O)C2CC2)CC1 + Cc1cnc(CNC(=O)c2c(=O)c3ccc(N4CCCN(C)CC4)nc3n3c2sc2ccccc23)cn1
Second compound 0.0316 µM
  IC50: 9980 nM
Second compound 0.1 µM
  IC50: > 10000 nM
Second compound 0.316 µM
  IC50: 5010 nM
Second compound 1 µM
  IC50: < 31.6 nM
Second compound 3.16 µM
  IC50: < 31.6 nM
Second compound 10 µM
  IC50: < 31.6 nM
[1]
  viability, T/C: 87.6%
[2]
  viability, T/C: 72.1%
[3]
  viability, T/C: 83.3%
[4]
  viability, T/C: 88.3%
[5]
  viability, T/C: 80.2%
[6]
  viability, T/C: 50%
[7]
  viability, T/C: 63.6%
[8]
  viability, T/C: 70.1%
[9]
  viability, T/C: 65.8%
[10]
  viability, T/C: 66.4%
[11]
  viability, T/C: 61.4%
[12]
  viability, T/C: 44.5%
[13]
  viability, T/C: 53.2%
[14]
  viability, T/C: 58.5%
[15]
  viability, T/C: 55.4%
[16]
  viability, T/C: 54.5%
[17]
  viability, T/C: 53.6%
[18]
  viability, T/C: 44%
[19]
  viability, T/C: 43%
[20]
  viability, T/C: 47%
[21]
  viability, T/C: 47.1%
[22]
  viability, T/C: 48.4%
[23]
  viability, T/C: 48.5%
[24]
  viability, T/C: 42.7%
[25]
  viability, T/C: 35.4%
[26]
  viability, T/C: 42.2%
[27]
  viability, T/C: 40.3%
[28]
  viability, T/C: 38.7%
[29]
  viability, T/C: 39.5%
[30]
  viability, T/C: 37.6%
[31]
  viability, T/C: 10.2%
[32]
  viability, T/C: 12.1%
[33]
  viability, T/C: 27.6%
[34]
  viability, T/C: 30.5%
[35]
  viability, T/C: 22.6%
[36]
  viability, T/C: 2.16%
